Assay results published in paper PMC4255150 (Structure (London, England : 1993), 2014).

Target: T1, AmiA (Bacteroides uniformis, UniProt A0ABC9NAU1)
T1 sequence (A0ABC9NAU1 24-262): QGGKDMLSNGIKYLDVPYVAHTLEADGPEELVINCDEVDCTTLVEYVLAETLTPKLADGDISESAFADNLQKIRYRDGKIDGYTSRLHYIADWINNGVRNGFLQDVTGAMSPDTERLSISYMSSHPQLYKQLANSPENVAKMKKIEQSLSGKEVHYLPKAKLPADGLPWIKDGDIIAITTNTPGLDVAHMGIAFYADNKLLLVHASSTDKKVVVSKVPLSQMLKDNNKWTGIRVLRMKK
Assay: HPLC inhibition assay with TCT
Type: biochemical
Details: 0.1 mM TCT substrate, pH 7.8, 37°C

SMILES | % activity retained at 1 mM | % activity retained at 1 mM (reaction product)
CC(=O)N[C@H]1C(O)O[C@H](CO)[C@@H](O)[C@@H]1O[C@H](C)C(=O)O (stereo partly drawn) [MurNAc] | 25% | –
CC(=O)N[C@H]1[C@H](O[C@H]2[C@H](O[C@H](C)C(=O)O)[C@@H](NC(C)=O)[C@@H]3OC[C@H]2O3)O[C@H](CO)[C@@H](O)[C@@H]1O [GlcNAc-anhMurNAc] | – | 15%
CC(=O)N[C@H]1C(O)O[C@H](CO)[C@@H](O)[C@@H]1O (stereo partly drawn) [GlcNAc] | 98% | –
